Test results as given in PMC7025332 (Journal of Medicinal Chemistry, 2020).

How the values were obtained:
[1] = Cellular functional assay; assay type: cell-based; details: data not shown
U2OS cells [2] = experiment: p53-responsive luciferase reporter assay; assay type: cell-based; details: U2OS BP100-luc/CMV-lacZ, 30 μM, 18 h
MDM2 = MDM2 (Homo sapiens, UniProt Q00987); experiment: Fluorescence polarization binding affinity; details: methyl to 4-chloro phenyl mutation
HCT-116 p53+/+ cells = experiment: MTT assay; assay type: cell-based; details: 200 μM, 48 h; for selectivity toward wild-type p53 cells versus p53-deletion cells: HCT-116 p53+/+ vs p53–/–; for suppression of proliferation of wild-type p53 cells: HCT-116 p53+/+
U2OS cells [3] = experiment: Western blotting of p21, MDM2 and p53 expression; assay type: cell-based; details: 30 μM, 16 h

Chain of MDM2 (Q00987 1-150): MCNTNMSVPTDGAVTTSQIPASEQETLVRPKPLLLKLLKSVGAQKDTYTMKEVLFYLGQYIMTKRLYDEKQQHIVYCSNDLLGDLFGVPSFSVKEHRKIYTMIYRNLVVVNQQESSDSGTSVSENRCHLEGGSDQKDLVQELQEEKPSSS

Row | SMILES | activity in the cellular functional assay [1] | luciferase activity compared with p53 peptide (U2OS cells [2]) | improvement of Kd (MDM2) | selectivity toward wild-type p53 cells versus p53-deletion cells (HCT-116 p53+/+ cells) | suppression of proliferation of wild-type p53 cells (HCT-116 p53+/+ cells) | MDM2 level (U2OS cells [3]) | p21 level (U2OS cells [3]; compared to control (PBS buffer))
1 | CC(=O)N[C@@H](CC(C)C)CN(CC(=O)N[C@@H](Cc1ccccc1)CN(CC(=O)N[C@@H](CCC(=O)O)CN(CC(=O)N[C@@H](Cc1c[nH]c2ccccc12)CN(CC(=O)N[C@@H](CCCCN)CN(CC(=O)N[C@@H](CC(C)C)CN(CC(=O)N[C@@H](C)CN(CC(N)=O)S(C)(=O)=O)S(=O)(=O)CC(C)C)S(C)(=O)=O)S(C)(=O)=O)S(C)(=O)=O)S(C)(=O)=O)S(=O)(=O)c1ccc(Cl)cc1 [PS4] | none of them is active | marginally increased luciferase activity | ∼fourfold improvement |  |  |  | 
2 | CC(=O)N[C@@H](CC(C)C)CN(CC(=O)N[C@@H](Cc1ccccc1)CN(CC(=O)N[C@@H](CCC(=O)O)CN(CC(=O)N[C@@H](Cc1c[nH]c2ccccc12)CN(CC(=O)N[C@@H](CCCCN)CN(CC(=O)N[C@@H](CC1CCC1)CN(CC(=O)N[C@@H](C)CN(CC(N)=O)S(C)(=O)=O)S(=O)(=O)CC(C)C)S(C)(=O)=O)S(C)(=O)=O)S(C)(=O)=O)S(C)(=O)=O)S(=O)(=O)c1ccc(Cl)cc1 [PS10] | none of them is active | marginally increased luciferase activity |  | more selective toward wild-type p53 cells than p53-deletion cells | suppress proliferation of wild-type p53 cells more efficiently than the p53 peptides |  | 
3 | CC(=O)N[C@@H](CC(C)C)CN(CC(=O)N[C@@H](Cc1ccccc1)CN(CC(=O)N[C@@H](CCC(=O)O)CN1CC(=O)N[C@@H](Cc2c[nH]c3ccccc23)CN(S(C)(=O)=O)CC(=O)N[C@@H](CCCCN)CN(CC(=O)N[C@@H](CC(C)C)CN(CC(=O)N[C@@H](C)CN(CC(N)=O)S(C)(=O)=O)S(=O)(=O)CC(C)C)S(=O)(=O)CCCC/C=C\CCCCS1(=O)=O)S(C)(=O)=O)S(=O)(=O)c1ccc(Cl)cc1 [PS11] |  |  |  | more selective toward wild-type p53 cells than p53-deletion cells | suppress proliferation of wild-type p53 cells more efficiently than the p53 peptides | increased moderately | increased significantly
4 | CC(=O)N[C@@H](CC(C)C)CN(CC(=O)N[C@@H](Cc1ccccc1)CN(CC(=O)N[C@@H](CCC(=O)O)CN1CC(=O)N[C@@H](Cc2c[nH]c3ccccc23)CN(S(C)(=O)=O)CC(=O)N[C@@H](CCCCN)CN(CC(=O)N[C@@H](CC(C)C)CN(CC(=O)N[C@@H](C)CN(CC(N)=O)S(C)(=O)=O)S(=O)(=O)CC(C)C)S(=O)(=O)CC/C=C/CCCCS1(=O)=O)S(C)(=O)=O)S(=O)(=O)c1ccc(Cl)cc1 [PS12] |  |  |  |  |  | increased moderately | 
